Test results published in US6281214A, “Biphenyl derivatives” (Eisai Co., Ltd, priority 1994, dated 2001).
Where a name gives a salt, the structure may show the parent alone. Read-outs that look alike come from different tables or passages of the source.

Columns and labels:
Design in all cases: species or system SD rats
adrenergic α1 receptor = adrenergic α1 receptor binding test ([3H] Prazosin Binding Test); details: 1 nM [3H] Prazosin, rat cortex, room temperature, 60 minutes
Method in brief: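 Rat (SD, 6-8 weeks) cerebral cortex membranes in 50 mM Tris-HCl pH 7.4 incubated with 1 nM [3H]prazosin for 60 min at room temperature; nonspecific binding defined with phentolamine. IC50 by probit method, converted to Ki using radioligand concentration and Scatchard-derived Kd.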

serotonin S2 receptor = biological target: T1, serotonin S2 receptor (Rattus norvegicus, UniProt P14842); assay: serotonin S2 receptor binding test ([3H] Ketanserin Binding Test); details: 1 nM [3H] Ketanserin, rat cortex, 37° C., 15 minutes
T1 construct: The receptor fraction prepared from the cortex was molten and suspended; from tissue; host or cells: cerebral cortex of SD rats (membrane fraction)
Method in brief: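 Rat (SD, 6–8 weeks) cortical membranes in 50 mM Tris-HCl pH 7.4 were incubated with 1 nM [3H]ketanserin for 15 min at 37 °C, then filtered and counted. Nonspecific binding was defined with methysergide. IC50 was obtained by probit analysis and converted to Ki using the Scatchard-derived Kd.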

dopamine D2 receptor = biological target: T2, dopamine D2 receptor (Rattus norvegicus, UniProt P61169); assay: dopamine D2 receptor binding test ([3H] Spiperone Binding Test); details: 1 nM [3H] Spiperone, rat corpus striatum, room temperature, 60 minutes
T2 construct: the receptor fraction prepared from the corpus striatum was molten and suspended; from tissue; host or cells: corpus striatum of SD rats (membrane fraction)
Method in brief: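 Rat (SD, 6–8 weeks) corpus striatum membranes in 50 mM Krebs-Tris pH 7.4 were incubated with 1 nM [3H]spiperone at room temperature for 60 minutes, with nonspecific binding defined by excess spiperone. IC50 came from probit analysis; Ki was derived using radioligand concentration and Scatchard Kd.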

[1] = read-out: Ki value, dopamine D2 receptor

T2 sequence (P61169 whole entry): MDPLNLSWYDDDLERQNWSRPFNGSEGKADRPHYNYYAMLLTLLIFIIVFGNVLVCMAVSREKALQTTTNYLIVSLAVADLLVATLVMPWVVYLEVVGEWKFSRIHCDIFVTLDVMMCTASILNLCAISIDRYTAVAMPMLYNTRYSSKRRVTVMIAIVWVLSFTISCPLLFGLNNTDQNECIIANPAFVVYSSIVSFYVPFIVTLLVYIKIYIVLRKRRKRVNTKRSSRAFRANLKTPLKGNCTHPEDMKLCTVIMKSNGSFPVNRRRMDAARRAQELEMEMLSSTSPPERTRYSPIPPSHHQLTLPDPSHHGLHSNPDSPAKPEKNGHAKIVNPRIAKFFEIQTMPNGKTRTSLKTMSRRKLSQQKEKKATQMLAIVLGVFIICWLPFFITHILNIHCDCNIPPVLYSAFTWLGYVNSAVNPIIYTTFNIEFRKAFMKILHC
T1 sequence (P14842 whole entry): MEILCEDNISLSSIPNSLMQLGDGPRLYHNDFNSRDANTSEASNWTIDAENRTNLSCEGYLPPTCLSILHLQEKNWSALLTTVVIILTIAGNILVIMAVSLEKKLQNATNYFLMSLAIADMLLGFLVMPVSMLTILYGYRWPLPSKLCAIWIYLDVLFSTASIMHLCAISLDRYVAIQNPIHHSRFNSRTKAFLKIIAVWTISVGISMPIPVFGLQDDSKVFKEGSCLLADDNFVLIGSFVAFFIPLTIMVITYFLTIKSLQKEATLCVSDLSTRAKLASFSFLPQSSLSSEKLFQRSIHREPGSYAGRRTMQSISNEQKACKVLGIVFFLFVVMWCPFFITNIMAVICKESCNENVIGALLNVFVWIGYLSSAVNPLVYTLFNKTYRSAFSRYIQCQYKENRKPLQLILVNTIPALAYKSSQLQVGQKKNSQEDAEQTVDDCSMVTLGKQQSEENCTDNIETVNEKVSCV

Structure (SMILES)	Ki (adrenergic α1 receptor) [nM]	Ki (serotonin S2 receptor) [nM]	Ki (dopamine D2 receptor; [1]) [nM]	Ki (adrenergic α1 receptor; hydrochloride) [nM]	Ki (dopamine D2 receptor; Ki value, dopamine D2 receptor) [nM]
CCN1CCN(c2cc(-c3ccccc3)c(OC)c([S+]([O-])Cc3ccccc3)c2)CC1 (stereo not drawn) [Example 119, 1-Ethyl-4-(3-phenyl-4-methoxy-5-benzylsulfinyl)phenylpiperazine]	> 1000	34.9	35.8	–	–
CCS(=O)(=O)Nc1cc(N2CCN(C)CC2)cc(-c2ccccc2Cl)c1Cl [Example 34, 1-Methyl-4-[3-(2-chlorophenyl)-4-chloro-5-ethanesulfonylamino]phenylpiperazine]	25.8	7.77	0.37	–	–
CCN1CCN(c2cc(C(=O)CC3CC3)c(OC)c(-c3ccccc3)c2)CC1 [Example 108, Ethyl-4-(3-phenyl-4-methoxy-5-cyclopropaneacetyl)phenylpiperazine]	408	4	162	–	–
CCC(O)c1cc(N2CCN(CC)CC2)cc(-c2ccccc2)c1Cl (stereo not drawn) [Example 138, 1Ethyl-4-[3-phenyl-4-chloro-5-(1-hydroxypropyl)]phenylpiperazine]	9.33	25	2.89	–	–
CCN1CCN(c2cc(-c3ccccc3C)c(Cl)c(S(C)(=O)=O)c2)CC1 [Example 158, 1-Ethyl-4-[3-(2-tolyl)-4-chloro-5-methanesulfonyl]phenylpiperazine]	> 1000	124	12.4	–	–
CCN1CCN(c2cc(C(=O)Cc3ccc(F)cc3)c(OC)c(-c3ccccc3)c2)CC1 [Example 93, 1-Ethyl-4-[3-phenyl-4-methoxy-5-(4-fluorophenyl)acetyl]phenylpiperazine]	719	1.31	28	–	–
COc1c(C(=O)Cc2ccccc2)cc(N2CCNCC2)cc1-c1ccccc1 [Example 125, 1-(3-phenyl-4-methoxy-5-phenylacetyl)phenylpiperazine]	> 1000	1.49	101	–	–
CCOCc1cc(N2CCN(CC)CC2)cc(-c2ccccc2C)c1Cl [Example 173, 1-Ethyl-4-[3-(2-tolyl)-4-chloro-5-ethoxymethyl]phenylpiperazine]	> 1000	> 1000	19.2	–	–
CCCS(=O)(=O)c1cc(N2CCN(C)CC2)cc(-c2ccc(F)cc2)c1OC [Example 193, 1-Methyl-4-[3-(4-fluorophenyl)-4-methoxy-5-propanesulfonyl]phenylpiperazine]	585	1.61	19.3	–	–
CCCc1cc(N2CCN(CC)CC2)cc(-c2ccc(F)cc2F)c1OC [Example 91, 1-Ethyl-4-[3-(2,4-difluorophenyl)-4-methoxy-5-propyl]phenylpiperazine]	323	37.1	7.34	–	–
CCN1CCN(c2cc(-c3ccccc3C)c(Cl)c(C(F)CC(C)C)c2)CC1 (stereo not drawn) [Example 51, 1-Ethyl-4-[3-(2-tolyl)-4-chloro-5-(1-fluoro-3-methylbutyl)]phenylpiperazine]	> 1000	164	27.2	–	–
CCS(=O)(=O)Nc1cc(N2CCN(C)CC2)cc(-c2ccccc2C)c1Cl [Example 28, 1-Methyl-4-[3-(2-tolyl)-4-chloro-5-ethanesulfonylamino]phenylpiperazine]	50.8	5.67	1.6	–	–
CC[C@H](F)c1cc(N2CCN(CCO)CC2)cc(-c2ccc(F)cc2C)c1Cl [Example 222]	1040	12	6.5	–	–
CCCc1cc(N2CCN(CC)CC2)cc(-c2ccccc2C)c1OC [Example 116, 1-Ethyl-4-[3-(2-tolyl)-4-methoxy-5-propyl]phenylpiperazine]	> 1000	39.5	9.65	–	–
C=CCOCc1cc(N2CCN(CC)CC2)cc(-c2ccccc2C)c1Cl [Example 175, 1-Ethyl-4-[3-(2-tolyl)-4-chloro-5-allyloxymethyl]phenylpiperazine]	> 1000	> 100	29.3	–	–
CC[C@H](F)c1cc(N2CCN(CC)CC2)cc(-c2ccc(F)cc2C)c1Cl [Example 211, 1-Ethyl-4-{3-[2-(4-fluorotolyl)]-4-chloro-5-[1-(S)-fluoropropnyl]}phenylpiperazine]	1020	8.81	4.14	–	–
CCCS(=O)(=O)Nc1cc(N2CCN(CC)CC2)cc(-c2ccccc2C)c1Cl [Example 17, 1-ethyl-4-[3-(2-tolyl)-4-chloro-5-propanesulfonylamino]phenylpiperazine hydrochloride]	–	374	> 100	550	–

Structure (SMILES)	Ki (adrenergic α1 receptor) [nM]	Ki (serotonin S2 receptor) [nM]	Ki (dopamine D2 receptor; [1]) [nM]	Ki (adrenergic α1 receptor; hydrochloride) [nM]	Ki (dopamine D2 receptor; Ki value, dopamine D2 receptor) [nM]
CCCC(F)c1cc(N2CCN(C)CC2)cc(-c2ccccc2Cl)c1Cl (stereo not drawn) [Example 178, 1-Methyl-4-[3-(2-chlorophenyl)-4-chloro-5-(1-fluorobutyl)]phenylpiperazine]	> 1000	12.2	7.3	–	–
CCCCS(=O)(=O)Nc1cc(N2CCN(CC)CC2)cc(-c2ccccc2C)c1Cl [Example 19, 1-Ethyl-4-[3-(2-tolyl)-4-chloro-5-butanesulfonylamino]phenylpiperazine]	81.6	1.95	0.64	–	–
CC[C@@H](F)c1cc(N2CCN(CCO)CC2)cc(-c2ccc(F)cc2C)c1Cl [Example 223, 1-(2-Hydroxyethyl)-4-{3-[2-(4-fluorotolyl)]-4-chloro-5-[1-(R)-fluoropropyl]}phenylpiperazine]	1510	1860	6.61	–	–
CCC(F)c1cc(N2CCN(C)CC2)cc(-c2ccccc2Cl)c1Cl (stereo not drawn) [Example 22, 1-Methyl-4-[3-(2-chlorophenyl)-4-chloro-5-(1-fluoropropyl)]phenylpiperazine]	809	19.2	2.84	–	–
CCCC(F)c1cc(N2CCN(CC)CC2)cc(-c2ccccc2Cl)c1Cl (stereo not drawn) [Example 54, 1-Ethyl-4-[3-(2-chlorophenyl)-4-chloro-5-(1-fluorobutyl)]phenylpiperazine]	> 1000	37.5	6.06	–	–
CCC(F)c1cc(N2CCN(CC)CC2)cc(-c2ccccc2C)c1Cl (stereo not drawn) [Example 131, 1-Ethyl-4-[3-(2-tolyl)-4-chloro-5-(1-fluoropropyl)]phenylpiperazine]	> 1000	20.8	3.3	–	–
CCCN1CCN(c2cc(-c3ccccc3C)c(Cl)c(C(F)CC)c2)CC1 (stereo not drawn) [Example 151, 1-Propyl-4-[3-(2-tolyl)-4-chloro-5-(1-fluoropropyl)]phenylpiperazine]	> 1000	27.7	3.52	–	–
CCC(OCc1ccccn1)c1cc(N2CCN(CC)CC2)cc(-c2ccccc2)c1OC (stereo not drawn) [Example 115, 1-Ethyl-4-{3-phenyl-4-methoxy-5-[1-(2-pyridylmethoxy)propyl]}phenylpiperazine]	> 1000	212	81.4	–	–
CCN1CCN(c2cc(CCl)c(OC)c(-c3ccccc3)c2)CC1 [Example 45, 1-Ethyl-4-(3-phenyl-4-methoxy-5-chloromelthy)phenylpiperazine]	183	192	–	–	26.9
CCS(=O)(=O)c1cc(N2CCN(CCc3ccncc3)CC2)cc(-c2ccc(F)cc2)c1OC [Example 201, 1-[2-(4-Pyridyl)ethyl]-4-[3-(4-fluorophenyl)-4-methoxy-5-ethanesulfonyl]phenylpiperazine]	12.9	3.17	19.7	–	–
CCN1CCN(c2cc(N)c(OC)c(-c3ccccc3)c2)CC1 [Example 110, 1-Ethyl-4-(3-phenyl-4-methoxy-5-amino)phenylpiperazine]	> 1000	> 1000	> 1000	–	–
CCN1CCN(c2cc(-c3ccccc3)c(OC)c(-c3ccccc3)c2)CC1 [Example 56, 1-Ethyl-4-(3,5-diphenyl-4-methoxy)phenylpiperazine]	503	212	111	–	–
CCN1CCN(c2cc(C(=O)Cc3ccncc3)c(OC)c(-c3ccccc3)c2)CC1 [Example 103, 1-Ethyl-4-[3-phenyl-4-methoxy-5-(4-pyridyl)acetyl]phenylpiperazine]	> 1000	6.65	101	–	–
CCCc1cc(N2CCN(CC)CC2)cc(-c2ccccc2OC)c1OC [Example 132]	> 1000	392	281	–	–
CCC(F)c1cc(N2CCN(CC)CC2)cc(-c2ccccc2)c1Cl (stereo not drawn) [Example 127, 1-Ethyl-4-[3-phenyl-4-chloro-5-(1-fluoropropyl)]phenylpiperazine]	65.9	11.4	1.04	–	–
CCC(F)c1cc(N2CCN(CCO)CC2)cc(-c2ccccc2C)c1Cl (stereo not drawn) [Example 26, 1-(2-Hydroxyethyl)-4-[3-(2-tolyl)-4-chloro-5-(1-fluloropropyl)]phenylpiperazine]	> 1000	21.6	2.67	–	–
CCCS(=O)(=O)NCc1cc(N2CCN(CC)CC2)cc(-c2ccccc2C)c1Cl [Example 192, 1-Ethyl-4-[3-(2-tolyl)-4-chloro-5-propanesulfonylaminomethyl]phenylpiperazine]	550	374	> 100	–	–
